Data from patent US8119681B2, “2-[1-phenyl-5-hydroxy or methoxy-4alpha-methyl-hexahydrocyclopenta [ƒ]indazole-5-YL]ethyl phenyl derivatives as glucocorticoid receptor ligands” (Merck Sharp & Dohme Corp., priority 2006, dated 2012).

Molecular target: T1, glucocorticoid receptor (GR) (Homo sapiens, UniProt P04150)
T1 construct: endogenous in cells; host or cells: HeLa (ATCC) cell lysate supernatant
T1 sequence (P04150 1-777): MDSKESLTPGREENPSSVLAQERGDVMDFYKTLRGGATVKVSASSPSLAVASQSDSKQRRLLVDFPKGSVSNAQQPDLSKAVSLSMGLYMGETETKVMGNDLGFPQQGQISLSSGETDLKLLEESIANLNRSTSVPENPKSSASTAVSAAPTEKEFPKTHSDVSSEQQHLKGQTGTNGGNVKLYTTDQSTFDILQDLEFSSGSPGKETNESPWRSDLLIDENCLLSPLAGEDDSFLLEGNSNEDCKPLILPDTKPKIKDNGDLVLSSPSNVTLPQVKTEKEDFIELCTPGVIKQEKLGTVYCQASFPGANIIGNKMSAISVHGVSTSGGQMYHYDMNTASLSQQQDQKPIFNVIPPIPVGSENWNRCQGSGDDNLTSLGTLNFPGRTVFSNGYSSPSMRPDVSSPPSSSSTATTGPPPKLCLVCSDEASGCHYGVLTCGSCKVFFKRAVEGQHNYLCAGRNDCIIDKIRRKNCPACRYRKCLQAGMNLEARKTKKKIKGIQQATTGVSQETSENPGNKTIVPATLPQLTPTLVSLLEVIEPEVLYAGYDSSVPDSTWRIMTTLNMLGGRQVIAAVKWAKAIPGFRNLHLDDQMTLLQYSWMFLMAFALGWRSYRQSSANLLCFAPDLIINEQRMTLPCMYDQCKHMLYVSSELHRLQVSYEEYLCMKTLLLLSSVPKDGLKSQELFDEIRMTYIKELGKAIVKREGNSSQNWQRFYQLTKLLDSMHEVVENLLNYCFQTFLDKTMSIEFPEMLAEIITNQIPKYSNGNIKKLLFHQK
Assay: Ligand binding assay (GR BIND), 3H-dexamethasone displacement, HeLa cell lysate
Description: Binding Buffer: TEGM (10 mM Tris-HCl, 1 mM EDTA, 10% glycerol, 1 mM beta-mercaptoethanol, 10 mM Sodium Molybdate, pH 7.2)
50% HAP Slurry: Calbiochem Hydroxylapatite, Fast Flow, in 10 mM Tris, pH 8.0 and 1 mM EDTA.
Wash Buffer: 40 mM Tris, pH7.5, 100 mM KCl, 1 mM EDTA and 1 mM EGTA.
Dexmethasone-methyl-^3H, (DEX*); (Amersham cat# TRK645)
Dexamethasone (DEX) (Sigma, cat# D1756):
Phenol red-free Trypsin-EDTA is diluted in the same PBS 1:10. The cell layers are rinsed with 1× Trypsin, extra Trypsin is poured out, and the cell layers are incubated at 37° C. for ˜2 min. The flask is tapped and checked for signs of cell detachment. Once the cells begin to slide off the flask, the complete media is added. The cells are counted at this point, then diluted to the appropriate concentration and split into flasks or dishes for further culturing (Usually 1:3 to 1:6 dilution).
Preparation of Hela Cell Lysate
The cell pellet is washed twice with TEGM (10 mM Tris-HCl, 1 mM EDTA, 10% glycerol, 1 mM beta-mercaptoethanol, 10 mM Sodium Molybdate, pH 7.2). After the final wash, the cells are resuspended in TEGM at a concentration of 10^7 cells/mL. The cell suspension is snap frozen in liquid nitrogen or ethanol/dry ice bath and transferred to −80° C. freezer on dry ice. Before setting up the binding assay, the frozen samples are left on ice-water to just thaw (˜1 hr). Then the samples are centrifuged at 12,500 g to 20,000 g for 30 min at 4° C. The supernatant is used to set-up assay right away. If using 50 μL of supernatant, the test compound can be prepared in 50 μL of the TEGM buffer.
Procedure for Multiple Compound Screening
1×TEGM buffer is prepared, and the isotope-containing assay mixture is prepared in the following order: EtOH (2% final concentration in reaction), 3H-DEX (Amersham Biosciences) and 1×TEGM. [e.g. For 100 samples, 200 μL (100×2) of EtOH+4.25 μL of 1:10 ^3H-Dex stock+2300 μL (100×23) 1×TEGM]. The compound is serially diluted, e.g., if starting final conc. is 1 μM, and the compound is in 25 μL of solution, for duplicate samples, 75 μL of 4×1 μM solution is made and 3 μL of 100 μM is added to 72 μL of buffer, and 1:5 serial dilution.
25 μL of ^3H-DEX (6 nM) trace and 25 μL compound solution are first mixed together, followed by addition of 50 μL receptor solution. The reaction is gently mixed, spun briefly at about 200 rpm and incubated at 4° C. overnight. 100 μL of 50% HAP slurry is prepared and added to the incubated reaction which is then vortexed and incubated on ice for 5 to 10 minutes. The reaction mixture is vortexed twice more to resuspend HAP while incubating reaction. The samples in 96-well format are then washed in wash buffer using The FilterMate™ Universal Harvester plate washer (Packard). The washing process transfers HAP pellet containing ligand-bound expressed receptor to Unifilter-96 GF/B filter plate (Packard). The HAP pellet on the filter plate is incubated with 50 μL of MICROSCINT (Packard) scintillant for 30 minutes before being counted on the TopCount microscintillation counter (Packard). IC50s are calculated using DEX as a reference.

[1] = Table 1, HeLa cell lysate, 3H-DEX
[2] = Table 2, prior-art comparison compounds

Row | Compound | Ki [1] | Ki [2]
1 | CC(C)[C@@H](C)NC(=O)c1c(F)cccc1CC[C@]1(O)CCC2=Cc3c(cnn3-c3ccc(F)cc3)C[C@@]21C [Example 48, N-[(1R)-1,2-dimethylpropyl]-2-fluoro-6-{2-[(4αS,5R)-1-(4-fluorophenyl)-5-hydroxy-4α-methyl-1,4,4α,5,6,7-hexahydrocyclopenta[f]indazol-5-yl]ethyl}benzamide] | 1.2 nM | 
2 | CCCNC(=O)c1c(F)cccc1CC[C@]1(O)CCC2=Cc3c(cnn3-c3ccc(F)cc3)C[C@@]21C [Example 49, 2-fluoro-6-{2-[(4αS,5R)-1-(4-fluorophenyl)-5-hydroxy-4α-methyl-1,4,4α,5,6,7-hexahydrocyclopenta[f]indazol-5-yl]ethyl}-N-propylbenzamide] | 0.81 nM | 
3 | CCNC(=O)c1ccccc1CC[C@]1(O)CCC2=Cc3c(cnn3-c3ccc(F)c(F)c3)C[C@@]21C [Example 51, 2-{2-[(4αS,5R)-1-(3,4-difluorophenyl)-5-hydroxy-4α-methyl-1,4,4α,5,6,7-hexahydrocyclopenta[f]indazol-5-yl]ethyl}-N-ethylbenzamide] | 7.05 nM | 
4 | CC(C)(C)CNC(=O)c1c(F)cccc1CC[C@]1(O)CCC2=Cc3c(cnn3-c3ccc(F)cc3)C[C@@]21C [Example 55, N-(2,2-dimethylpropyl)-2-fluoro-6-{2-[(4αS,5R)-1-(4-fluorophenyl)-5-hydroxy-4α-methyl-1,4,4α,5,6,7-hexahydrocyclopenta[f]indazol-5-yl]ethyl}benzamide] | 0.92 nM | 
5 | COc1ccccc1CC[C@]1(O)CCC2=Cc3c(cnn3-c3ccc(F)cc3)C[C@@]21C [Example 58 WO 2004/075840 A2, reference compound] |  | 0.28 nM
6 | CC(C)(C)NC(=O)c1c(F)cccc1CC[C@]1(O)CCC2=Cc3c(cnn3-c3ccc(F)cc3)C[C@@]21C [Example 59, N-(tert-butyl)-2-fluoro-6-{2-[(4αS,5R)-1-(4-fluorophenyl)-5-hydroxy-4α-methyl-1,4,4α,5,6,7-hexahydrocyclopenta[f]indazol-5-yl]ethyl}benzamide] | 1.83 nM | 
7 | CC(C)(C)NC(=O)c1ccccc1CC[C@]1(O)CCC2=Cc3c(cnn3-c3ccc(F)cc3)C[C@@]21C [Example 62, N-(tert-butyl)-2-{2-[(4αS,5R)-1-(4-fluorophenyl)-5-hydroxy-4α-methyl-1,4,4α,5,6,7-hexahydrocyclopenta[f]indazol-5-yl]ethyl}benzamide] | 9.58 nM | 
8 | C[C@]12Cc3cnn(-c4ccc(F)cc4)c3C=C1CC[C@@]2(O)CCc1ccccc1F [Example 70 WO 2004/075840 A2, reference compound] |  | 2.95 nM
9 | C[C@]12Cc3cnn(-c4ccc(F)cc4)c3C=C1CC[C@@]2(O)CCc1ccccc1CC(N)=O [Example 107, 2-(2-{2-[(4αS,5R)-1-(4-fluorophenyl)-5-hydroxy-4α-methyl-1,4,4α,5,6,7-hexahydrocyclopenta[f]indazol-5-yl]ethyl}phenyl)acetamide] | 2.32 nM | 

Further compounds by falling Ki [1], results first:

Row | Ki [1] | Ki [2] | Compound
10 | 0.8 nM |  | COC(=O)C(C)(C)NC(=O)c1ccccc1CC[C@]1(O)CCC2=Cc3c(cnn3-c3ccc(F)cc3)C[C@@]21C [Example 52, methyl N-(2-{2-[(4αS,5R)-1-(4-fluorophenyl)-5-hydroxy-4α-methyl-1,4,4α,5,6,7-hexahydrocyclopenta[f]indazol-5-yl]ethyl}benzoyl)-2-methylalaninate]
11 | 0.62 nM |  | CCS(=O)(=O)NCc1c(F)cccc1CC[C@]1(O)CCC2=Cc3c(cnn3-c3ccc(F)cc3)C[C@@]21C [Example 84, N-(2-fluoro-6-{2-[(4αS,5R)-1-(4-fluorophenyl)-5-hydroxy-4α-methyl-1,4,4α,5,6,7-hexahydrocyclopenta[f]indazol-5-yl]ethyl}benzyl)ethanesulfonamide]
12 | 0.61 nM |  | C=CCNC(=O)c1c(F)cccc1CC[C@]1(O)CCC2=Cc3c(cnn3-c3ccc(F)cc3)C[C@@]21C [Example 57, N-allyl-2-fluoro-6-{2-[(4αS,5R)-1-(4-fluorophenyl)-5-hydroxy-4α-methyl-1,4,4α,5,6,7-hexahydrocyclopenta[f]indazol-5-yl]ethyl}benzamide]
13 | 0.58 nM |  | CC(C)CNC(=O)c1c(F)cccc1CC[C@]1(O)CCC2=Cc3c(cnn3-c3ccc(F)cc3)C[C@@]21C [Example 61, 2-fluoro-6-{2-[(4αS,5R)-1-(4-fluorophenyl)-5-hydroxy-4α-methyl-1,4,4α,5,6,7-hexahydrocyclopenta[f]indazol-5-yl]ethyl}-N-isobutylbenzamide]
14 | 0.57 nM |  | C[C@]12Cc3cnn(-c4ccc(F)cc4)c3C=C1CC[C@@]2(O)CCc1cccc(F)c1CNS(=O)(=O)C1CC1 [Example 88, N-(2-fluoro-6-{2-[(4αS,5R)-1-(4-fluorophenyl)-5-hydroxy-4α-methyl-1,4,4α,5,6,7-hexahydrocyclopenta[f]indazol-5-yl]ethyl}benzyl)cyclopropanesulfonamide]
15 | 0.56 nM |  | CC(C)S(=O)(=O)NCc1c(F)cccc1CC[C@]1(O)CCC2=Cc3c(cnn3-c3ccc(F)cc3)C[C@@]21C [Example 83, N-(2-fluoro-6-{2-[(4αS,5R)-1-(4-fluorophenyl)-5-hydroxy-4α-methyl-1,4,4α,5,6,7-hexahydrocyclopenta[f]indazol-5-yl]ethyl}benzyl)propane-2-sulfonamide]
16 | 0.51 nM |  | C[C@]12Cc3cnn(-c4ccc(F)cc4)c3C=C1CC[C@@]2(O)CCc1cccc(F)c1CNS(=O)(=O)CC(F)(F)F [Example 86, 2,2,2-trifluoro-N-(2-fluoro-6-{2-[(4αS,5R)-1-(4-fluorophenyl)-5-hydroxy-4α-methyl-1,4,4α,5,6,7-hexahydrocyclopenta[f]indazol-5-yl]ethyl}benzyl)ethanesulfonamide]
17 | 0.4 nM |  | CN(C)S(=O)(=O)NCc1c(F)cccc1CC[C@]1(O)CCC2=Cc3c(cnn3-c3ccc(F)cc3)C[C@@]21C [Example 89, N′-(2-fluoro-6-{2-[(4αS,5R)-1-(4-fluorophenyl)-5-hydroxy-4α-methyl-1,4,4α,5,6,7-hexahydrocyclopenta[f]indazol-5-yl]ethyl}benzyl)-N,N-dimethylsulfamide]
18 | 0.31 nM |  | C[C@]12Cc3cnn(-c4ccc(F)cc4)c3C=C1CC[C@@]2(O)CCc1cccc(F)c1CNS(=O)(=O)C(Cl)Cl [Example 85, 1,1-dichloro-N-(2-fluoro-6-{2-[(4αS,5R)-1-(4-fluorophenyl)-5-hydroxy-4α-methyl-1,4,4α,5,6,7-hexahydrocyclopenta[f]indazol-5-yl]ethyl}benzyl)methanesulfonamide]
19 | 0.26 nM |  | C[C@]12Cc3cnn(-c4ccc(F)cc4)c3C=C1CC[C@@]2(O)CCc1ccccc1C1(NS(=O)(=O)C2CC2)CC1 [Example 91, N-[1-(2-{2-[(4αS,5R)-1-(4-fluorophenyl)-5-hydroxy-4α-methyl-1,4,4α,5,6,7-hexahydrocyclopenta[f]indazol-5-yl]ethyl}phenyl)cyclopropyl]cyclopropanesulfonamide]
